Literature values in the CATMoS acute toxicity set (Mansouri et al. 2021).
Several values for one entry are separate records, joined by “and”; a condition that tells them apart may be missing. Identical values can stand only once.

Assay: rat acute oral toxicity
Conditions: in vivo

Row | Compound | LD50
1 | CCCCC(CC)COCCO (stereo not given) | 3080 mg/kg
2 | O=C(/C=C/C=C/c1ccc2c(c1)OCO2)N1CCCCC1 | 514 mg/kg
3 | FC(F)(F)c1nc2c(Br)c(Br)c(Br)c(Br)c2[nH]1 | 5.02 mg/kg
4 | COC(=O)CC(SP(=O)(OC)OC)C(=O)OC (stereo not given) | 103 mg/kg
5 | O=C(O)C(=O)C(O)=C(O)O | 6000 mg/kg
6 | COP(=O)(Oc1ccccc1)OC(Br)C(Cl)(Cl)Br (stereo not given) | 500 mg/kg
7 | O=C(c1ccc(O)cc1O)c1ccc(O)cc1O | 1220 mg/kg
8 | O=C(CF)NNc1ccccc1 | 9.1 mg/kg
9 | COc1ccc(S(=O)(=O)Nc2nnc(C(C)(C)C)s2)cc1 | 1150 mg/kg
10 | CCCCCCCCCCCCCCCCCC1=NCCN1 | 3170 mg/kg and 4600 mg/kg and 1970 mg/kg
11 | CNC(=O)Oc1cccc2c(O)cccc12 | 297 mg/kg
12 | O=CCCCC(O)C=O (stereo not given) | 17000 mg/kg
13 | CNC(=O)ON=C1CS(=O)CCS1 (stereo not given) | 12.3 mg/kg
14 | CCOc1ccc(Cl)cc1C(CN1CCCCC1)C(C)CC (stereo not given) | 445 mg/kg
15 | CC(C)(C)c1ccccc1 | 3040 mg/kg
16 | CCOP(=O)(OCC)SCn1nc(Cl)c(C)cc1=O | 27 mg/kg
17 | COP(=O)(OC1CCCCC1)Sc1ccc(Cl)cc1 (stereo not given) | 160 mg/kg
18 | BrC1(Br)C2CCC1CC2 | 210 mg/kg
19 | CCOP(=S)(OCC)Oc1ccc(SC)c(C)c1 | 14 mg/kg
20 | CCCCCCCCCCCC=O | 23000 mg/kg

Row | Compound | LD50
21 | CCOP(=O)(OCC)SCC(C)(SCC)SCC | 15 mg/kg
22 | CCC(CC)C(=O)OCCOCCOCCOC(=O)C(CC)CC | 6000 mg/kg
23 | OC1(c2ccc(Cl)cc2)N=CN[n+]2ccc3ccccc3c21 (stereo not given) | 1300 mg/kg
24 | ClCC(Cl)(Cl)C(Cl)Cl | 819 mg/kg
25 | c1ccc(CC2CCNCC2)cc1 | 540 mg/kg
26 | NC(=S)Nc1cccc(Cl)c1 | 25 mg/kg
27 | CN1CC(CC(C#N)C(N)=O)CC2c3cccc4[nH]cc(c34)CC21 (stereo not given) | 1000 mg/kg
28 | O[C@@H]([C@H](O)[C@H](O)CBr)[C@H](O)CBr | 1500 mg/kg
29 | C[N+](C)(C)CCC[N+]1(C)CC2C3C=CC(CC3)C2C1 (stereo not given) | 1730 mg/kg
30 | CC#CCC(C)[C@H](O)/C=C/[C@@H]1[C@H]2c3cccc(CCCC(=O)O)c3O[C@H]2C[C@H]1O (stereo not given in full) | 12 mg/kg and 11.6 mg/kg
31 | C=CCCC(=O)O | 470 mg/kg
32 | CC(=O)Oc1ccccc1C(=O)OC(=O)c1ccccc1OC(C)=O | 2200 mg/kg
33 | O=[N+]([O-])c1ccc(F)cc1F | 200 mg/kg
34 | C1=CC(c2ccc(C3CC=CCC3)cc2)CCC1 (stereo not given) | 17500 mg/kg
35 | CCOP(=S)(OCC)Oc1ccc(N)cc1 | 450 mg/kg
36 | O=C(O)c1ccccc1Nc1cc(Cl)ccc1C(=O)O | 1150 mg/kg
37 | C1CN1c1nc(N2CC2)nc(N2CC2)n1 | 13 mg/kg
38 | CC1COC(c2ccccc2)O1 (stereo not given) | 3000 mg/kg
39 | CCCOP(=O)(OC=C(Cl)Cl)OCCCl (stereo not given) | 25 mg/kg
40 | OCP(CO)CO | 178 mg/kg

Row | Compound | LD50
41 | CCC1CN2CCC1CC2C(O)c1ccnc2ccc(OC)cc12 (stereo not given) | 369 mg/kg
42 | CCOC(=O)C(C#N)C(=O)Cc1c(C)n(C(=O)c2ccc(Cl)cc2)c2ccc(OC)cc12 (stereo not given) | 82 mg/kg
43 | CCCCCCc1ccc(O)cc1O | 550 mg/kg
44 | ON=C1C=CC(=NO)C=C1 | 464 mg/kg
45 | c1ccc2c(c1)ncn2P(n1cnc2ccccc21)n1cnc2ccccc21 | 2900 mg/kg
46 | CN(CCCn1cnc2c1c(=O)n(C)c(=O)n2C)c1ccccc1 | 1640 mg/kg
47 | CC1CNCC(C)O1 (stereo not given) | 2830 mg/kg
48 | COC(=O)C(Cl)Cc1ccc(Cl)cc1 (stereo not given) | 1070 mg/kg
49 | O=C1CN(N=Cc2ccc(-c3ccc([N+](=O)[O-])cc3)o2)C(=O)N1 | 7430 mg/kg
50 | O=C(OCC1CO1)c1cccc(C(=O)OCC2CO2)c1 (stereo not given) | 1000 mg/kg
51 | Clc1ccc2ccccc2c1 | 2080 mg/kg
52 | Cc1c(Cl)c(Cl)c2nc(C(F)(F)F)[nH]c2c1Cl | 18.3 mg/kg
53 | O=Cc1ccc(O)cc1 | 2250 mg/kg
54 | Cc1ccc(OCC(O)CNC(C)(C)C)c2oc(=O)ccc12 (stereo not given) | 676 mg/kg
55 | Cn1c2c(c3cc(N)ccc31)CCCC2 | 229 mg/kg
56 | CC1CCCc2n1c(=O)c(C(N)=O)c[n+]2C (stereo not given) | 600 mg/kg
57 | CC1(C)OCC(COC(=O)Cc2ccc3c(c2)OCc2ccccc2C3=O)O1 (stereo not given) | 92 mg/kg
58 | C=C1C(=CC=C2CCCC3(C)C2CCC3C(C)CCCC(C)C)CC(O)CC1O (stereo not given) | 340 mg/kg
59 | Cc1ccc(SP(=S)(CCl)OC(C)C)cc1 (stereo not given) | 204 mg/kg
60 | CCCCCCCCCCCO | 3000 mg/kg
